Reference: the supplement of paper PMC10307832

How the values were obtained:
Assay in all cases: relative viability (nuclei count vs DMSO), 5 days (fraction); higher = more cells survive
[1] = compound: CCc1cnn2c(NCc3ccc[n+]([O-])c3)cc(N3CCCC[C@H]3CCO)nc12 [Dinaciclib]
How it was run: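 Five library-drug doses spaced by √10 were pinned onto vehicle-anchored 1536-well plates of lung cancer cell lines that had been kept overnight at 37 °C. Cells went 5 days without medium change, then were fixed, permeabilised and Hoechst-stained together, imaged at 4× and counted by MetaXpress. Viability is the ratio of treated-well to vehicle-well nuclei, taken as a median over plates. Plates required control CV below 25% and at least one doubling.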

[2] = compound: CCc1cnn2c(NCc3ccc[n+]([O-])c3)cc(N3CCCC[C@H]3CCO)nc12 [Dinaciclib] + CC1(C)CCC(c2ccc(Cl)cc2)=C(CN2CCN(c3ccc(C(=O)NS(=O)(=O)c4ccc(N[C@H](CCN5CCOCC5)CSc5ccccc5)c(S(=O)(=O)C(F)(F)F)c4)cc3)CC2)C1 [Navitoclax] (partner 0.5 µM)
How it was run: (§1)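 The day after seeding in 1536-well plates, lung cancer cell lines were treated by pin tool with a single drug, or with a fixed anchor-drug dose together with five library-drug doses (not always all listed) in √10 steps. After 5 days, a combined fix-and-stain solution (final 0.05% Triton X-100, 1% formaldehyde, 1 ug/ml Hoechst) was added. Nuclei counted on 4× images gave relative viability as treated counts over vehicle counts, reported as the median of duplicate plates.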

[3] = compound: CCc1cnn2c(NCc3ccc[n+]([O-])c3)cc(N3CCCC[C@H]3CCO)nc12 [Dinaciclib] + C[C@]1(O)C[C@@H](c2nc(-c3ccc4ccc(-c5ccccc5)nc4c3)c3c(N)nccn32)C1 [Linsitinib] (partner 1 µM)
How it was run: as §1

[4] = compound: CCc1cnn2c(NCc3ccc[n+]([O-])c3)cc(N3CCCC[C@H]3CCO)nc12 [Dinaciclib] + CC(C)C[C@H](NC(=O)[C@H](Cc1ccccc1)NC(=O)c1cnccn1)B(O)O [Bortezomib] (partner 0.002 µM)
How it was run: as §1

[5] = compound: CCc1cnn2c(NCc3ccc[n+]([O-])c3)cc(N3CCCC[C@H]3CCO)nc12 [Dinaciclib] + C[C@@H](Oc1cc(-c2cnn(C3CCNCC3)c2)cnc1N)c1c(Cl)ccc(F)c1Cl [Crizotinib] (partner 1 µM)
How it was run: as §1

[6] = compound: CCc1cnn2c(NCc3ccc[n+]([O-])c3)cc(N3CCCC[C@H]3CCO)nc12 [Dinaciclib] + CS(=O)(=O)N1CCN(Cc2cc3nc(-c4cccc5[nH]ncc45)nc(N4CCOCC4)c3s2)CC1 [Pictilisib] (partner 1 µM)
How it was run: as §1

[7] = compound: CCc1cnn2c(NCc3ccc[n+]([O-])c3)cc(N3CCCC[C@H]3CCO)nc12 [Dinaciclib] + CS(=O)(=O)CCNCc1ccc(-c2ccc3ncnc(Nc4ccc(OCc5cccc(F)c5)c(Cl)c4)c3c2)o1 [Lapatinib] (partner 2 µM)
How it was run: as §1

[8] = compound: CCc1cnn2c(NCc3ccc[n+]([O-])c3)cc(N3CCCC[C@H]3CCO)nc12 [Dinaciclib] + COc1cc2c(Oc3ccc(NC(=O)C4(C(=O)Nc5ccc(F)cc5)CC4)cc3F)ccnc2cc1OCCCN1CCOCC1 [Foretinib] (partner 0.25 µM)
How it was run: as §1

[9] = compound: CCc1cnn2c(NCc3ccc[n+]([O-])c3)cc(N3CCCC[C@H]3CCO)nc12 [Dinaciclib] + O=C(c1cc(Cc2n[nH]c(=O)c3ccccc23)ccc1F)N1CCN(C(=O)C2CC2)CC1 [Olaparib] (partner 8 µM)
How it was run: as §1

[10] = compound: CCc1cnn2c(NCc3ccc[n+]([O-])c3)cc(N3CCCC[C@H]3CCO)nc12 [Dinaciclib] + Cc1nc(NC(=O)N2CCC[C@H]2C(N)=O)sc1-c1ccnc(C(C)(C)C(F)(F)F)c1 [Alpelisib] (partner 2 µM)
How it was run: as §1

[11] = compound: CCc1cnn2c(NCc3ccc[n+]([O-])c3)cc(N3CCCC[C@H]3CCO)nc12 [Dinaciclib] + Cc1nc(Nc2ncc(C(=O)Nc3c(C)cccc3Cl)s2)cc(N2CCN(CCO)CC2)n1 [Dasatinib] (partner 0.075 µM)
How it was run: as §1

[12] = compound: CCc1cnn2c(NCc3ccc[n+]([O-])c3)cc(N3CCCC[C@H]3CCO)nc12 [Dinaciclib] + COc1cccc2cc(-c3nc([C@H]4CC[C@H](C(=O)O)CC4)n4ncnc(N)c34)[nH]c12 [OSI-027] (partner 0.5 µM)
How it was run: as §1

[13] = compound: CCc1cnn2c(NCc3ccc[n+]([O-])c3)cc(N3CCCC[C@H]3CCO)nc12 [Dinaciclib] + N=C(N)NC(=N)NCCc1ccccc1 [Phenformin] (partner 250 µM)
How it was run: as §1

[14] = compound: CCc1cnn2c(NCc3ccc[n+]([O-])c3)cc(N3CCCC[C@H]3CCO)nc12 [Dinaciclib] + Cc1cc(Nc2cc(N3CCN(C)CC3)nc(Sc3ccc(NC(=O)C4CC4)cc3)n2)n[nH]1 [Tozasertib] (partner 0.1 µM)
How it was run: as §1

[15] = compound: CCc1cnn2c(NCc3ccc[n+]([O-])c3)cc(N3CCCC[C@H]3CCO)nc12 [Dinaciclib] + CCNC(=O)c1noc(-c2cc(C(C)C)c(O)cc2O)c1-c1ccc(CN2CCOCC2)cc1 [Luminespib] (partner 0.01 µM)
How it was run: as §1

Cell Line: NCI-H1299
- relative viability ([1]; 0.009487 µM): 0.98
- relative viability ([1]; 0.03 µM): 0.371
- relative viability ([1]; 0.09487 µM): 0.121
- relative viability ([1]; 0.3 µM): 0.0997
- relative viability ([2]; first compound 0.009487 µM): 1.12
- relative viability ([2]; first compound 0.03 µM): 0.27
- relative viability ([2]; first compound 0.09487 µM): 0.107
- relative viability ([2]; first compound 0.3 µM): 0.107
- relative viability ([3]; first compound 0.009487 µM): 0.883
- relative viability ([3]; first compound 0.03 µM): 0.24
- relative viability ([3]; first compound 0.09487 µM): 0.103
- relative viability ([3]; first compound 0.3 µM): 0.0705
- relative viability ([4]; first compound 0.009487 µM): 1.05
- relative viability ([4]; first compound 0.03 µM): 0.216
- relative viability ([4]; first compound 0.09487 µM): 0.142
- relative viability ([4]; first compound 0.3 µM): 0.135
- relative viability ([5]; first compound 0.009487 µM): 0.709
- relative viability ([5]; first compound 0.03 µM): 0.681
- relative viability ([5]; first compound 0.09487 µM): 0.144
- relative viability ([5]; first compound 0.3 µM): 0.111
- relative viability ([6]; first compound 0.009487 µM): 0.416
- relative viability ([6]; first compound 0.03 µM): 0.0311
- relative viability ([6]; first compound 0.09487 µM): 0.0181
- relative viability ([6]; first compound 0.3 µM): 0.0214
- relative viability ([7]; first compound 0.009487 µM): 0.824
- relative viability ([7]; first compound 0.03 µM): 0.198
- relative viability ([7]; first compound 0.09487 µM): 0.137
- relative viability ([7]; first compound 0.3 µM): 0.124
- relative viability ([8]; first compound 0.009487 µM): 0.986
- relative viability ([8]; first compound 0.03 µM): 0.202
- relative viability ([8]; first compound 0.09487 µM): 0.104
- relative viability ([8]; first compound 0.3 µM): 0.088
- relative viability ([9]; first compound 0.009487 µM): 0.962
- relative viability ([9]; first compound 0.03 µM): 0.16
- relative viability ([9]; first compound 0.09487 µM): 0.0946
- relative viability ([9]; first compound 0.3 µM): 0.104
- relative viability ([10]; first compound 0.009487 µM): 1.09
- relative viability ([10]; first compound 0.03 µM): 0.821
- relative viability ([10]; first compound 0.09487 µM): 0.15
- relative viability ([10]; first compound 0.3 µM): 0.188

Cell Line: NCI-H1623
- relative viability ([1]; 0.009487 µM): 1.02
- relative viability ([1]; 0.03 µM): 0.332
- relative viability ([1]; 0.09487 µM): 0.26
- relative viability ([1]; 0.3 µM): 0.196
- relative viability ([11]; first compound 0.009487 µM): 0.518
- relative viability ([11]; first compound 0.03 µM): 0.36
- relative viability ([11]; first compound 0.09487 µM): 0.207
- relative viability ([11]; first compound 0.3 µM): 0.231
- relative viability ([12]; first compound 0.009487 µM): 0.397
- relative viability ([12]; first compound 0.03 µM): 0.236
- relative viability ([12]; first compound 0.09487 µM): 0.231
- relative viability ([12]; first compound 0.3 µM): 0.2
- relative viability ([13]; first compound 0.009487 µM): 0.609
- relative viability ([13]; first compound 0.03 µM): 0.259
- relative viability ([13]; first compound 0.09487 µM): 0.213
- relative viability ([13]; first compound 0.3 µM): 0.225
- relative viability ([8]; first compound 0.009487 µM): 0.831
- relative viability ([8]; first compound 0.03 µM): 0.273
- relative viability ([8]; first compound 0.09487 µM): 0.235
- relative viability ([8]; first compound 0.3 µM): 0.234
- relative viability ([14]; first compound 0.009487 µM): 0.437
- relative viability ([14]; first compound 0.03 µM): 0.249
- relative viability ([14]; first compound 0.09487 µM): 0.207
- relative viability ([14]; first compound 0.3 µM): 0.193
- relative viability ([15]; first compound 0.009487 µM): 0.428
- relative viability ([15]; first compound 0.03 µM): 0.262
- relative viability ([15]; first compound 0.09487 µM): 0.132
- relative viability ([15]; first compound 0.3 µM): 0.144
